Experiments:
[1] = solubility of the API in MeOH; type: physicochemical; conditions: 20° C.
Protocol: The solubility at 20° C. of the API in MeOH was determined as follows: approximately 50 mg Levothyroxine sodium were weighed in a vial. Methanol was gradually added until the solution became clear.

[2] = LVX solubility in DCM/MeOH 10/3 with PLGA (evaluation of maximum theoretical drug loading); type: physicochemical
Protocol: A quantity of approximately 0.25 g of polymer and varying quantities of LVX corresponding to theoretical drug loading values 1%, 2%, 3% and 4% were weighed in four vials. A DCM/MeOH mixture at a ratio of 10/3 (to ensure the polymer is always dissolved) was gradually added in each vial. The respective PLGA (PURASORB PDLG 5002A) concentrations, % LVX content and LVX solubility were evaluated and are presented in the table below.

solubility in MeOH [1]: 3.41 % mass LVX/mass of MeOH | ratio LVX/(DCM+MeOH) at which levothyroxine is dissolved ([2]; DCM/MeOH 10/3 with PLGA): below 0.1% | LVX Solubility ([2]; Vial 1, 1.0% TDL, DCM+MeOH 2.5 g, 0.11% LVX in mix, 13.01% PLGA in DCM): Insoluble | LVX Solubility ([2]; Vial 1, 1.0% TDL, DCM+MeOH 3.3 g, 0.08% LVX in mix, 9.99% PLGA in DCM): Almost Clear | LVX Solubility ([2]; Vial 1, 1.0% TDL, DCM+MeOH 4.3 g, 0.06% LVX in mix, 7.63% PLGA in DCM): Clear | LVX Solubility ([2]; Vial 1, 1.0% TDL, DCM+MeOH 5.5 g, 0.05% LVX in mix, 5.92% PLGA in DCM): Clear | LVX Solubility ([2]; Vial 2, 2.0% TDL, DCM+MeOH 2.6 g, 0.20% LVX in mix, 12.58% PLGA in DCM): Slurry | LVX Solubility ([2]; Vial 2, 2.0% TDL, DCM+MeOH 3.3 g, 0.16% LVX in mix, 10.05% PLGA in DCM): Sluny | LVX Solubility ([2]; Vial 2, 2.0% TDL, DCM+MeOH 4.3 g, 0.12% LVX in mix, 7.69% PLGA in DCM): Less Slurry | LVX Solubility ([2]; Vial 2, 2.0% TDL, DCM+MeOH 5.6 g, 0.09% LVX in mix, 5.92% PLGA in DCM): Almost Clear | LVX Solubility ([2]; Vial 3, 3.0% TDL, DCM+MeOH 2.6 g, 0.30% LVX in mix, 12.69% PLGA in DCM): Shary | LVX Solubility ([2]; Vial 3, 3.0% TDL, DCM+MeOH 3.3 g, 0.24% LVX in mix, 9.97% PLGA in DCM): Slurry | LVX Solubility ([2]; Vial 3, 3.0% TDL, DCM+MeOH 4.2 g, 0.18% LVX in mix, 7.70% PLGA in DCM): Less Shury | LVX Solubility ([2]; Vial 3, 3.0% TDL, DCM+MeOH 5.5 g, 0.14% LVX in mix, 5.95% PLGA in DCM): Less Slurry | LVX Solubility ([2]; Vial 3, 3.0% TDL, DCM+MeOH 7.7 g, 0.10% LVX in mix, 4.25% PLGA in DCM): Almost Clear | LVX Solubility ([2]; Vial 3, 3.0% TDL, DCM+MeOH 9.6 g, 0.08% LVX in mix, 3.39% PLGA in DCM): Almost Clear | LVX Solubility ([2]; Vial 3, 3.0% TDL, DCM+MeOH 12.3 g, 0.06% LVX in mix, 2.65% PLGA in DCM): Clear | LVX Solubility ([2]; Vial 4, 4.0% TDL, DCM+MeOH 2.6 g, 0.39% LVX in mix, 12.33% PLGA in DCM): Slurry | LVX Solubility ([2]; Vial 4, 4.0% TDL, DCM+MeOH 3.3 g, 0.31% LVX in mix, 9.82% PLGA in DCM): Shary | LVX Solubility ([2]; Vial 4, 4.0% TDL, DCM+MeOH 4.3 g, 0.24% LVX in mix, 7.56% PLGA in DCM): Slurry | LVX Solubility ([2]; Vial 4, 4.0% TDL, DCM+MeOH 5.6 g, 0.19% LVX in mix, 5.87% PLGA in DCM): Less Slurry
Structure (SMILES): N[C@@H](Cc1cc(I)c(Oc2cc(I)c(O)c(I)c2)c(I)c1)C(=O)O [Levothyroxine sodium]

Reference: patent publication US20250268830A1, “SUSTAINED RELEASE INJECTABLE PHARMACEUTICAL FORMULATION OF LEVOTHYROXINE AND PROCESS FOR PREPARATION THEREOF” (PHARMATHEN S.A., priority 2021, published 2025)
